Like-named read-outs stand apart in the source and are kept apart here.
Experiments:
[1] = target: GDP-bound HRAS wild-type protein (Homo sapiens, UniProt P01112); experiment: Binding to HRAS by surface plasmon resonance (SPR), Single Cycle Kinetics; conditions: for HRAS/KRAS (ratio of KD value for HRAS to KD value for KRAS) / ratio of the KD value with respect to GDP-bound HRAS wild-type protein to the KD value with respect to KRAS: SPR; for HRAS/KRAS (ratio of KD value for HRAS to KD value for KRAS): GDP-bound HRAS wild-type protein vs GDP-bound KRAS wild-type protein; for HRAS/KRAS (ratio of KD value with respect to GDP-bound HRAS wild-type protein to KD value with respect to KRAS): SPR KD ratio HRAS/KRAS, class symbols
GDP-bound HRAS wild-type protein, sequence (P01112 whole entry): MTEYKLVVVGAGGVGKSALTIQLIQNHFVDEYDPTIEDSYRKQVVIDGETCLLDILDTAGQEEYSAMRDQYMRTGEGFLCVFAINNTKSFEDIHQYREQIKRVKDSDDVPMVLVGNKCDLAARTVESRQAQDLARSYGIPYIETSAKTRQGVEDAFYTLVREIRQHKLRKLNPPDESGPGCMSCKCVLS

[2] = target: GDP-bound NRAS wild-type protein (Homo sapiens, UniProt P01111); experiment: Binding to NRAS by surface plasmon resonance (SPR), Single Cycle Kinetics; conditions: for NRAS/KRAS (ratio of KD value for NRAS to KD value for KRAS) / ratio of the KD value with respect to GDP-bound NRAS wild-type protein to the KD value with respect to KRAS: SPR; for NRAS/KRAS (ratio of KD value for NRAS to KD value for KRAS): GDP-bound NRAS wild-type protein vs GDP-bound KRAS wild-type protein; for NRAS/KRAS (ratio of KD value with respect to GDP-bound NRAS wild-type protein to KD value with respect to KRAS): SPR KD ratio NRAS/KRAS, class symbols
GDP-bound NRAS wild-type protein, sequence (P01111 whole entry): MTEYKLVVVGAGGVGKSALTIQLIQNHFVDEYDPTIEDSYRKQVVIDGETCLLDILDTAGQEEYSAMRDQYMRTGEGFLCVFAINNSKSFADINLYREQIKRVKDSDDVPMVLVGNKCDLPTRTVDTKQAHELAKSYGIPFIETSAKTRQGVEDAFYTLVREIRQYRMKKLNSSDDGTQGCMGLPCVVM

[3] = test system: human lung cancer strain NCI-H441;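 further: cell proliferation inhibition after four days measured by CellTiter-Glo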
[4] = target: GDP-bound KRAS wild-type protein (Homo sapiens, UniProt P01116); experiment: Binding to KRAS by surface plasmon resonance (SPR), Single Cycle Kinetics; conditions: GDP-bound KRAS wild-type protein, read-out: KRAS KD
GDP-bound KRAS wild-type protein, sequence (P01116 whole entry): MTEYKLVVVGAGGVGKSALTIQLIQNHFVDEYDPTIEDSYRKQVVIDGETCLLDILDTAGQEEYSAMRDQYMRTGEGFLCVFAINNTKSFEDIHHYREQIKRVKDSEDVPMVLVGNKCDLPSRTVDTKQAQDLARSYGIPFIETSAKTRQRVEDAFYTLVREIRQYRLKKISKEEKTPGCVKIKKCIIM

[5] = SPR, Single Cycle Kinetics, 1:1 binding model
[6] = SPR Single Cycle Kinetics, 1:1 binding model
[7] = read-out: NCI-H441 cell proliferation inhibitory activity, 50% proliferation inhibitory concentration (IC50 value), NCI-H441, four days, CellTiter-Glo

SMILES	HRAS/KRAS (ratio of KD value for HRAS to KD value for KRAS) [1]	NRAS/KRAS (ratio of KD value for NRAS to KD value for KRAS) [2]	IC50 [3] [nM]	Kd ([4]; SPR, Single Cycle Kinetics) [nM]	HRAS/KRAS (ratio of KD value for HRAS to KD value for KRAS) ([1]; KD ratio class)	NRAS/KRAS (ratio of KD value for NRAS to KD value for KRAS) ([2]; KD ratio class)	Kd [4, 5] [nM]	also measured
CCC[C@H]1C(=O)N[C@@H](CC(C)C)C(=O)N(CCOC)CC(=O)N(C)[C@H]2C/C=C\CCN(C2=O)[C@@H](Cc2ccc(C)cc2)C(=O)N(C)CC(=O)N[C@@H](CCc2cc(F)c(C(F)(F)F)c(F)c2)C(=O)N2C[C@H](OCC)C[C@H]2C(=O)NC2(CC(C)(C)C2)C(=O)N(C)[C@@H](C2CCCC2)C(=O)N(C)[C@H](C(=O)N(C)C)CC(=O)N1C [PP2520]	A (a compound having 10 or more and less than 20 is denoted as A)	A (a compound having 10 or more and less than 20 is denoted as A)	210	3.3	–	–	–	–
CCO[C@@H]1C[C@H]2C(=O)NC3(CCC3)C(=O)N(C)[C@@H](C(CC)CC)C(=O)N(C)[C@H](C(=O)N(C)C)CC(=O)N(C)[C@@H](CC(C)C)C(=O)N[C@@H]([C@@H](C)CC)C(=O)N(C)CC(=O)N(C)[C@H]3C/C=C\CCN(C3=O)[C@@H](Cc3ccc(C(F)(F)F)cc3)C(=O)N(C)CC(=O)N[C@@H](CCc3ccc(C(F)(F)F)c(OC)c3)C(=O)N2C1 [PP1209]	–	–	15.9	–	A (a compound having 10 or more and less than 20 is denoted as A)	AA (a compound having 20 or more is denoted as AA)	0.22	–
CCO[C@@H]1C[C@H]2C(=O)NC3(CCC3)C(=O)N(C)[C@@H](C(CC)CC)C(=O)N(C)[C@H](C(=O)N(C)C)CC(=O)N(C)[C@@H](CC3CCCC3)C(=O)N[C@@H]([C@@H](C)CC)C(=O)N(C)CC(=O)N(C)[C@H]3C/C=C\CCN(C3=O)[C@@H](Cc3ccc(C(F)(F)F)cc3)C(=O)N(C)CC(=O)N[C@@H](CCc3ccc(Cl)c(Cl)c3)C(=O)N2C1 [PP1220]	–	–	22.2	–	A (a compound having 10 or more and less than 20 is denoted as A)	AA (a compound having 20 or more is denoted as AA)	0.57	–
CCC[C@H]1C(=O)N[C@@H]([C@@H](C)CC)C(=O)N(C)CC(=O)N(C)[C@H]2C/C=C\CCN(C2=O)[C@@H](Cc2ccc(C)cc2)C(=O)N(C)CC(=O)N[C@@H](CCc2ccc(Cl)c(Cl)c2)C(=O)N2C[C@H](OC3CCC3)C[C@H]2C(=O)NC2(CC(C)(C)C2)C(=O)N(C)[C@@H](C(CC)CC)C(=O)N(C)[C@H](C(=O)N(C)C)CC(=O)N1C [PP2644]	–	–	75	–	–	–	–	HRAS/KRAS (ratio of KD value with respect to GDP-bound HRAS wild-type protein to KD value with respect to KRAS) [1]: A (a compound having 10 or more and less than 20 is denoted as A); NRAS/KRAS (ratio of KD value with respect to GDP-bound NRAS wild-type protein to KD value with respect to KRAS) [2]: AA (a compound having 20 or more is denoted as AA); Kd [4, 6]: 0.81 nM
CC[C@H](C)[C@@H]1NC(=O)[C@@H]2CCCc3ccc(cc3)C[C@@H](C(=O)N(C)CC(=O)N[C@@H](CCc3ccc(C(F)(F)F)c(OC)c3)C(=O)N3CC4(CC4)C[C@H]3C(=O)NC3(CC(C)(C)C3)C(=O)N(C)[C@@H](C3CCCC3)C(=O)N(C)[C@H](C(=O)N(C)CC)CC(=O)N2C)N2CC/C=C\C[C@@H](C2=O)N(C)C(=O)CN(C)C1=O [PP3087]	B (a compound having 3 or more and less than 10 is denoted as B)	A (a compound having 10 or more and less than 20 is denoted as A)	–	0.22	–	–	–	ratio of the KD value with respect to GDP-bound HRAS wild-type protein to the KD value with respect to KRAS [1]: B (a compound having 3 or more and less than 10 is denoted as B); ratio of the KD value with respect to GDP-bound NRAS wild-type protein to the KD value with respect to KRAS [2]: A (a compound having 10 or more and less than 20 is denoted as A); IC50 [3, 7]: 6.9 nM
CCO[C@@H]1C[C@H]2C(=O)NC3(CCC3)C(=O)N(C)[C@@H](C3CCCC3)C(=O)N(C)[C@H](C(=O)N3CCOCC3)CC(=O)N(C)[C@@H](CC(C)C)C(=O)N[C@@H]([C@@H](C)CC)C(=O)N(C)CC(=O)N(C)[C@H]3C/C=C\CCN(C3=O)[C@@H](Cc3ccc(C(F)(F)F)cc3)C(=O)N(C)CC(=O)N[C@@H](CCc3cc(F)c(C(F)(F)F)c(F)c3)C(=O)N2C1 [PP1282]	–	–	12.3	–	A (a compound having 10 or more and less than 20 is denoted as A)	A (a compound having 10 or more and less than 20 is denoted as A)	0.2	–
CCO[C@@H]1C[C@H]2C(=O)NC3(CCC3)C(=O)N(C)[C@@H](C(CC)CC)C(=O)N(C)[C@H](C(=O)N(C)C)CC(=O)N(C)[C@@H](C)C(=O)N[C@@H]([C@@H](C)CC)C(=O)N(C)CC(=O)N(C)[C@H]3C/C=C\CCN(C3=O)[C@@H](Cc3ccc(C(F)(F)F)cc3)C(=O)N(C)CC(=O)N[C@@H](CCc3cc(F)c(C(F)(F)F)c(F)c3)C(=O)N2C1 [PP1199, (2S,8S,12R,14S,20S,23S,27S,30S,36S,38Z)-8-[2-[3,5-difluoro-4-(trifluoromethyl)phenyl]ethyl]-12-ethoxy-20-(1-ethylpropyl)-N,N,4,19,22,26,27,32,35-nonamethyl-30-[(1S)-1-methylpropyl]-3,6,9,15,18,21,25,28,31,34,42-undecaoxo-2-[[4-(trifluoromethyl)phenyl]methyl]spiro[1,4,7,10,16,19,22,26,29,32,35-undecazatricyclo[34.5.1.0^10,14]dotetracont-38-ene-17,1′-cyclobutane]-23-carboxamide]	A (a compound having 10 or more and less than 20 is denoted as A)	A (a compound having 10 or more and less than 20 is denoted as A)	39.1	0.17	–	–	–	–
C#CC[C@H]1C(=O)N[C@@H]([C@@H](C)CC)C(=O)N(C)CC(=O)N(C)[C@H]2CC[C@@H](C)CN(C2=O)[C@@H](Cc2ccc(C(F)(F)F)cc2)C(=O)N(C)CC(=O)N[C@@H](CCc2ccc(C(F)(F)F)c(Cl)c2)C(=O)N2CCC[C@H]2C(=O)NC2(CCCC2)C(=O)N(C)[C@@H](C2CCCC2)C(=O)N(C)[C@H](C(=O)N(C)C)CC(=O)N1C [PP1340]	–	–	10.9	–	B (a compound having 3 or more and less than 10 is denoted as B)	B (a compound having 3 or more and less than 10 is denoted as B)	0.081	–
CCO[C@@H]1C[C@H]2C(=O)NC3(CC(C)(C)C3)C(=O)N(C)[C@@H](CC(C)(C)C)C(=O)N(C)[C@H](C(=O)N(C)C)CC(=O)N(C)[C@@H](COC)C(=O)N[C@@H]([C@@H](C)CC)C(=O)N(C3CC3)CC(=O)N(C)[C@H]3C/C=C\CCN(C3=O)[C@@H](Cc3ccc(C(F)(F)F)cc3)C(=O)N(C)CC(=O)N[C@@H](CCc3cc(F)c(C(F)(F)F)c(F)c3)C(=O)N2C1 [PP2744]	–	–	10.7	–	–	–	–	HRAS/KRAS (ratio of KD value with respect to GDP-bound HRAS wild-type protein to KD value with respect to KRAS) [1]: A (a compound having 10 or more and less than 20 is denoted as A); NRAS/KRAS (ratio of KD value with respect to GDP-bound NRAS wild-type protein to KD value with respect to KRAS) [2]: A (a compound having 10 or more and less than 20 is denoted as A); Kd [4, 6]: 0.23 nM
CC[C@H](C)[C@@H]1NC(=O)[C@@H]2CCCCc3ccc(cc3)C[C@@H](C(=O)N(C)CC(=O)N[C@@H](CCc3ccc(C(F)(F)F)c(OC)c3)C(=O)N3C[C@H](OC(C)C)C[C@H]3C(=O)NC3(CC(C)(C)C3)C(=O)N(C)[C@@H](C3CCCC3)C(=O)N(C)[C@H](C(=O)N(C)CC)CC(=O)N2C)N2CC/C=C\C[C@@H](C2=O)N(C)C(=O)CN(C)C1=O [PP3078]	B (a compound having 3 or more and less than 10 is denoted as B)	A (a compound having 10 or more and less than 20 is denoted as A)	–	0.048	–	–	–	ratio of the KD value with respect to GDP-bound HRAS wild-type protein to the KD value with respect to KRAS [1]: B (a compound having 3 or more and less than 10 is denoted as B); ratio of the KD value with respect to GDP-bound NRAS wild-type protein to the KD value with respect to KRAS [2]: A (a compound having 10 or more and less than 20 is denoted as A); IC50 [3, 7]: 2.3 nM
CCC[C@H]1C(=O)N[C@@H](CC(C)C)C(=O)N(C2CC2)CC(=O)N(C)[C@H]2C/C=C\CCN(C2=O)[C@@H](Cc2ccc(C)cc2)C(=O)N(C)CC(=O)N[C@@H](CCc2ccc(C(F)(F)F)c(OC)c2)C(=O)N2C[C@H](OCC)C[C@H]2C(=O)NC2(CCC2)C(=O)N(C)[C@@H](C2CCCC2)C(=O)N(C)[C@H](C(=O)N(C)C)CC(=O)N1C [PP2534]	–	–	195	–	–	–	–	HRAS/KRAS (ratio of KD value with respect to GDP-bound HRAS wild-type protein to KD value with respect to KRAS) [1]: B (a compound having 3 or more and less than 10 is denoted as B); NRAS/KRAS (ratio of KD value with respect to GDP-bound NRAS wild-type protein to KD value with respect to KRAS) [2]: A (a compound having 10 or more and less than 20 is denoted as A); Kd [4, 6]: 4.1 nM
